Source: ChEMBL document CHEMBL4477239 (Bioorg Med Chem, 2016)

Experiments:
NCI-H1993 = assay: Cytotoxicity against human NCI-H1993 cells assessed as growth inhibition after 72 hrs by CCK-8 assay; details: NCI-H1993, 72 h
Cytochrome P450 2D6 = Cytochrome P450 2D6 (Homo sapiens, UniProt P10635); assay: Time-dependent inhibition of CYP2D6 in human liver microsomes at 10 uM using paroxetine as […] preincubated with compound followed by NADPH addition by LC-MS/MS analysis; type: ADME
[1] = Intrinsic clearance in human liver microsomes assessed per mg of protein at 1 uM preincubated for 5 mins followed by NADPH addition measured after 5 to 30 mins by LC-MS/MS analysis; type: ADME, Microsome; details: read-out: CLH
Cytochrome P450 3A4 = Cytochrome P450 3A4 (Homo sapiens, UniProt P08684); assay: Time-dependent inhibition of CYP3A4 in human liver microsomes at 10 uM using troleandomycin as […] preincubated with compound followed by NADPH addition by LC-MS/MS analysis; type: ADME
Sequence of Cytochrome P450 3A4 (P08684 whole entry): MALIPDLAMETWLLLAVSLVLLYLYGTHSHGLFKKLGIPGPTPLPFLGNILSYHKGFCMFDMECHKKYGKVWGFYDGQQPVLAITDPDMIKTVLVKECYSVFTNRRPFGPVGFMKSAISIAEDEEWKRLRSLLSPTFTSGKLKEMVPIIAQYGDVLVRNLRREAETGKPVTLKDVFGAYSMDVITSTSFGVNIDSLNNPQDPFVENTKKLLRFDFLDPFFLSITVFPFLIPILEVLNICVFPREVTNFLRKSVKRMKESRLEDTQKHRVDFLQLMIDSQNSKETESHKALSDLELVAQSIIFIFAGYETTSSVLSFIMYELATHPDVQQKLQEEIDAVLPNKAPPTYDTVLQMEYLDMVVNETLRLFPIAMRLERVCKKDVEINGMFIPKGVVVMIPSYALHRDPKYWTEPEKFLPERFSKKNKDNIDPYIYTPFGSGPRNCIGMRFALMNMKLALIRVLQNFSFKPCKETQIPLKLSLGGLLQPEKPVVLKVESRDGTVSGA

[2] = Intrinsic clearance in rat liver microsomes assessed per mg of protein at 1 uM preincubated for 5 mins followed by NADPH addition measured after 5 to 30 mins by LC-MS/MS analysis; type: ADME, Microsome; details: read-out: CLH
Cytochrome P450 2C9 = Cytochrome P450 2C9 (Homo sapiens, UniProt P11712); assay: Inhibition of CYP2C9 in human liver microsomes at 10 uM using sulfaphenazole as […] preincubated for 5 mins followed by NADPH addition measured after 20 mins by LC-MS/MS analysis; type: ADME
Sequence of Cytochrome P450 2C9 (P11712 whole entry): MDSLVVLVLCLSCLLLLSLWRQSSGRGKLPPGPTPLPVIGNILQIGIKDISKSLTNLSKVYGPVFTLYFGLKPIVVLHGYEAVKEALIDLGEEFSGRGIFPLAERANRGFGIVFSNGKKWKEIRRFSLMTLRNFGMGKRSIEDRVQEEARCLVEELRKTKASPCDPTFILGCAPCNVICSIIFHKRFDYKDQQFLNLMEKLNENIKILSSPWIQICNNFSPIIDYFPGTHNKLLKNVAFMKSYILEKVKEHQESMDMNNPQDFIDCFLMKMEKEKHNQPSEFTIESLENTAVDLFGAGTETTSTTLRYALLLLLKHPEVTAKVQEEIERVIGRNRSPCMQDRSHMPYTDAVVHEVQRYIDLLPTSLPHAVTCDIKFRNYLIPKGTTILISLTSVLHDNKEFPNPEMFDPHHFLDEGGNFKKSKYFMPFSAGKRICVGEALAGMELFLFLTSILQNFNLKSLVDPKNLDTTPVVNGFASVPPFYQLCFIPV

Cytochrome P450 1A2 = molecular target: T1, Cytochrome P450 1A2 (Homo sapiens, UniProt P05177); assay: Time-dependent inhibition of CYP1A2 in human liver microsomes at 10 uM using furafylline as […] preincubated with compound followed by NADPH addition by LC-MS/MS analysis; type: ADME
T1 sequence (P05177 whole entry): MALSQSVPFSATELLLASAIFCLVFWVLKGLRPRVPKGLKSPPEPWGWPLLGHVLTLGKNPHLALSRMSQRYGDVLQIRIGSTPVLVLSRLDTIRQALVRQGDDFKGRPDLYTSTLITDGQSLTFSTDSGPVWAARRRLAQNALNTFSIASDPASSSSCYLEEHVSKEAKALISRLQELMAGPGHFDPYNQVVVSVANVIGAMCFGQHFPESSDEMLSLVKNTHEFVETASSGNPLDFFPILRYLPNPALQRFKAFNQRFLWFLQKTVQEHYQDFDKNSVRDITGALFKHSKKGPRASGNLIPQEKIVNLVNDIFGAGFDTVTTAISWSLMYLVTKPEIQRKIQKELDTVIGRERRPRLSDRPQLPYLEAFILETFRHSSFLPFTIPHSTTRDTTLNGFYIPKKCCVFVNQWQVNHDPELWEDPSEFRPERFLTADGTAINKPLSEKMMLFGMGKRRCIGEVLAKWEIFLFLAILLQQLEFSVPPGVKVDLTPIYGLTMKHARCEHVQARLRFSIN

[3] = molecular target: Hepatocyte growth factor receptor (Homo sapiens, UniProt P08581)
Sequence of Hepatocyte growth factor receptor (P08581 whole entry): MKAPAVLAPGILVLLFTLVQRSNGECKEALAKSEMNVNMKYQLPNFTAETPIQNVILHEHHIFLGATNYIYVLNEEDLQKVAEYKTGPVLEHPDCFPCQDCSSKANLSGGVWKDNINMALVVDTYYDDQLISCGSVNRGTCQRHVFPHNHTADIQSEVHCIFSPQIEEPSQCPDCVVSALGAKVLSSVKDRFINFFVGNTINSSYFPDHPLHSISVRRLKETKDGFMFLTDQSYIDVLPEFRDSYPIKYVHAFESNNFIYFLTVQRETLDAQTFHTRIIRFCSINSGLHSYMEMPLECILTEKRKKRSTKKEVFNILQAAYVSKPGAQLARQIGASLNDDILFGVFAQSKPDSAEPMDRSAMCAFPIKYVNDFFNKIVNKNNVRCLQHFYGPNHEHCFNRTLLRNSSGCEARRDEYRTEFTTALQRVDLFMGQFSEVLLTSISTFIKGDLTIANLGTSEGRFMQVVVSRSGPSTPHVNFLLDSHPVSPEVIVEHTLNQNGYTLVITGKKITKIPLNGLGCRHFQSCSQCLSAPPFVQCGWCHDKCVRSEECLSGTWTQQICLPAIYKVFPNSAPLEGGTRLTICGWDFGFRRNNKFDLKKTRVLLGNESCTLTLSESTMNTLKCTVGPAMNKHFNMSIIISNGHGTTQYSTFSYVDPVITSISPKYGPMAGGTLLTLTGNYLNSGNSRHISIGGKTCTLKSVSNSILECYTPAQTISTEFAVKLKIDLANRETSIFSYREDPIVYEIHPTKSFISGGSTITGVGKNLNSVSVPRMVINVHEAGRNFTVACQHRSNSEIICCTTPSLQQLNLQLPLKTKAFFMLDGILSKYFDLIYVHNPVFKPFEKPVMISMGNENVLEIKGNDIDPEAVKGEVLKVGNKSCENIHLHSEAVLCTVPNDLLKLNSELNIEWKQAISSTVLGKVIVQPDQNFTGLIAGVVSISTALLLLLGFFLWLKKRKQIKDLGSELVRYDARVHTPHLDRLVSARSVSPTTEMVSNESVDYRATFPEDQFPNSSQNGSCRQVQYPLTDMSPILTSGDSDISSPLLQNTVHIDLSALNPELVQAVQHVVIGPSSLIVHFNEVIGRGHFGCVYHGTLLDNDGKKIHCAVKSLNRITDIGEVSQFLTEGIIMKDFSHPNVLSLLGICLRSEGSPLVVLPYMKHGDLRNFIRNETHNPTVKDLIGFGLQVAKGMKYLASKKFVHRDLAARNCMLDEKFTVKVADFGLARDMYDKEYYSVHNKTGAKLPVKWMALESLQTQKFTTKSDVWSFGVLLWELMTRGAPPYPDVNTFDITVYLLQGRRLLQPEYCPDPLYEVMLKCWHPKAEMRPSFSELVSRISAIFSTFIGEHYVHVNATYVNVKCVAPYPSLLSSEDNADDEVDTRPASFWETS
Description: Inhibition of c-Met kinase (unknown origin) assessed as decrease in phosphorylation of TK substrate-biotin peptide preincubated for 5 to 10 mins followed by ATP addition measured after 30 mins by HTRF assay

Sequence of Cytochrome P450 2D6 (P10635 whole entry): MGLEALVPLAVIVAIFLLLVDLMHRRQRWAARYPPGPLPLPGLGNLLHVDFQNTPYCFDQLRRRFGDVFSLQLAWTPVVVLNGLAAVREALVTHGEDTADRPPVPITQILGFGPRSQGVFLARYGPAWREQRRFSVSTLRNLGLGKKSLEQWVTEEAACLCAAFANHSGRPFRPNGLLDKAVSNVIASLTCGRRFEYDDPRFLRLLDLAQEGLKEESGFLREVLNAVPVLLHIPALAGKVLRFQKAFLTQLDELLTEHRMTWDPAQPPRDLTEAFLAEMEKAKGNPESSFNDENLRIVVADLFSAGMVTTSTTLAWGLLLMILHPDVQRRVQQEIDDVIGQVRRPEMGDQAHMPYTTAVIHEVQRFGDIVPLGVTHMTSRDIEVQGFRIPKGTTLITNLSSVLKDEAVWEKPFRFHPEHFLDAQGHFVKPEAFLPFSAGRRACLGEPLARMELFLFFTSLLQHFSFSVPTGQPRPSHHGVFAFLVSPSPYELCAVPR

SMILES | IC50 [3] [nM] | IC50 (NCI-H1993) [nM] | also measured
Cn1cc(-c2cnc3ncn(Cc4ccc5ncccc5c4)c3n2)cn1 |  | 617 | 
CC(c1c(F)cc2ncccc2c1F)n1cnc2ncc(-c3cnn(CCO)c3)nc21 (configuration not stated) | 1 | 83.7 | inhibition (INH) (Cytochrome P450 2D6): Not Active; microsomal CLint at 1 µM [1]: 2 µL/min/mg; inhibition (INH) (Cytochrome P450 3A4): Not Active; microsomal CLint at 1 µM [2]: 10 µL/min/mg; inhibition (INH) (Cytochrome P450 2C9): Active; inhibition (INH) (Cytochrome P450 1A2): Not Active
CC(c1cc(F)c2ncccc2c1)n1cnc2ncc(-c3ccccc3)nc21 (configuration not stated) | 155 | > 10000 | 
C[C@H](c1cc2cccnc2cc1F)n1cnc2ncc(-c3ccc(C(N)=O)c(F)c3)nc21 | 2.79 | 329 | 
Cn1cc(-c2cnc3nc(O)n(Cc4ccc5ncccc5c4)c3n2)cn1 | > 1000 | > 10000 | 
CCC(c1cc2cccnc2cc1F)n1cnc2ncc(-c3cnc4ccccc4c3)nc21 (configuration not stated) | 17.2 |  | 
C1=C(c2cnc3ncn(Cc4ccc5ncccc5c4)c3n2)CCNC1 | 33.2 | 6660 | 
CCC(c1ccc2ncccc2c1F)n1cnc2ncc(-c3ccc(C(=O)NC)c(F)c3)nc21 (configuration not stated) | 7.7 |  | 
Cc1c(C(C)n2cnc3ncc(-c4ccncc4)nc32)ccc2ncccc12 (configuration not stated) | 4.4 | 950 | 
c1ccc(-c2cnc3ncn(Cc4ccc5ncccc5c4)c3n2)cc1 | 17.6 | 7490 | 
CC(c1cc(F)c2ncccc2c1)n1cnc2ncc(-c3cn[nH]c3)nc21 (configuration not stated) | 279 | > 10000 | 
CCC(c1cc2cccnc2cc1F)n1cnc2ncc(-c3ccc(C(=O)OC)c(F)c3)nc21 (configuration not stated) | 18.1 |  | 
CC(NC/N=C/c1cnc2[nH]ccc2c1)c1ccc2ncccc2c1 (configuration not stated) | 3.3 | 956 | 
Nc1ccc(-c2cnc3ncn(Cc4ccc5ncccc5c4)c3n2)cc1 | 12.4 | 4950 | 
CCC(c1ccc2ncccc2c1F)n1cnc2ncc(-c3ccccc3)nc21 (configuration not stated) | 81 |  | 
CC(NC/N=C/c1ccccc1)c1ccc2ncccc2c1 (configuration not stated) | 5.17 | 1220 | 
CC(NC/N=C/C1=CCNCC1)c1ccc2ncccc2c1 (configuration not stated) | 15.2 | 2660 | 
Cc1cc2ncccc2cc1C(C)n1cnc2ncc(-c3cnc4ccccc4c3)nc21 (configuration not stated) | 38.1 |  | 
CCC(c1cc2cccnc2cc1F)n1cnc2ncc(-c3cnn(C)c3)nc21 (configuration not stated) | 10.6 |  | 
Cc1c(C(C)n2cnc3ncc(-c4cnc5ccccc5c4)nc32)ccc2ncccc12 (configuration not stated) | 4.9 | 450 | 
OCCn1cc(-c2cnc3ncn(Cc4ccc5ncccc5c4)c3n2)cn1 | 15.9 | 2320 | 
Cc1cc2ncccc2cc1C(C)n1cnc2ncc(-c3cnn(C)c3)nc21 (configuration not stated) | 32.6 |  | 
Cc1c(C(C)n2cnc3ncc(-c4cn[nH]c4)nc32)ccc2ncccc12 (configuration not stated) | 2.7 | 599 | 
Fc1ccccc1-c1cnc2ncn(Cc3ccc4ncccc4c3)c2n1 | 24.6 | > 10000 | 
CC(c1cc2cccnc2cc1F)n1cnc2ncc(-c3ccncc3)nc21 (configuration not stated) | 3.8 | 171 | 
FC(F)(F)Oc1ccc(-c2cnc3ncn(Cc4ccc5ncccc5c4)c3n2)cc1 | 81.2 | > 10000 | 

SMILES | IC50 [3] [nM] | IC50 (NCI-H1993) [nM] | also measured
c1cnc2ccc(Cn3cnc4ncc(-c5cn[nH]c5)nc43)cc2c1 | 13.2 | 2890 | 
Oc1nc2ncc(-c3ccncc3)nc2n1Cc1ccc2ncccc2c1 | > 1000 | > 10000 | 
CCC(c1ccc2ncccc2c1F)n1cnc2ncc(-c3cnn(CCO)c3)nc21 (configuration not stated) | 22.5 |  | 
CC(NC/N=C/c1cnn(C)c1)c1ccc2ncccc2c1 (configuration not stated) | 2.49 | 197 | 
Oc1nc2ncc(-c3ccccc3)nc2n1Cc1ccc2ncccc2c1 | > 1000 | > 10000 | 
CCC(c1ccc2ncccc2c1F)n1cnc2ncc(-c3ccc(C(N)=O)c(F)c3)nc21 (configuration not stated) | 1.6 | 665 | 
CC(c1c(F)cc2ncccc2c1F)n1cnc2ncc(-c3ccccc3)nc21 (configuration not stated) | 1.8 | 514 | 
CCC(c1cc2cccnc2cc1F)n1cnc2ncc(-c3ccc(C(=O)NC)c(F)c3)nc21 (configuration not stated) | 9.4 |  | 
CC(NC/N=C/c1ccnn1C)c1ccc2ncccc2c1 (configuration not stated) | 38.5 | 3280 | 
CN(C)c1cccc(-c2cnc3ncn(Cc4ccc5ncccc5c4)c3n2)c1 | 40 | > 10000 | 
CC(c1cc2cccnc2cc1F)n1cnc2ncc(-c3cnc4ccccc4c3)nc21 (configuration not stated) | 3.4 | 109 | 
CCC(c1ccc2ncccc2c1F)n1cnc2ncc(-c3cn[nH]c3)nc21 (configuration not stated) | 37.7 |  | 
CC(NC/N=C/c1cn[nH]c1)c1ccc2ncccc2c1 (configuration not stated) | 11.4 | 519 | 
CCC(c1cc2cccnc2cc1F)n1cnc2ncc(-c3ccccc3)nc21 (configuration not stated) | 28.1 |  | 
CC(c1cc(F)c2ncccc2c1)n1cnc2ncc(-c3ccncc3)nc21 (configuration not stated) | 190 | > 10000 | 
Cc1nc2ncc(-c3cnn(C)c3)nc2n1Cc1ccc2ncccc2c1 | 641 | > 10000 | 
CC(c1cc2cccnc2cc1F)n1cnc2ncc(-c3cnn(CCO)c3)nc21 (configuration not stated) | 4.5 | 175 | 
C[C@H](c1cc2cccnc2cc1F)n1cnc2ncc(-c3cnn(C)c3)nc21 | 1.94 | 239 | 
c1cnc2ccc(Cn3cnc4ncc(-c5ccncc5)nc43)cc2c1 | 17.5 | 1160 | 
CCC(c1cc2cccnc2cc1F)n1cnc2ncc(-c3ccncc3)nc21 (configuration not stated) | 14.1 |  | 
CC(NC/N=C/c1ccncc1)c1ccc2ncccc2c1 (configuration not stated) | 3.67 | 614 | 
Cc1c(C(C)n2cnc3ncc(-c4cnn(CCO)c4)nc32)ccc2ncccc12 (configuration not stated) | 4.2 | 726 | 
CCC(c1ccc2ncccc2c1F)n1cnc2ncc(-c3ccncc3)nc21 (configuration not stated) | 100 |  | 
CC(c1cc(F)c2ncccc2c1)n1cnc2ncc(-c3cccc4ccccc34)nc21 (configuration not stated) | > 1000 |  | 
CC(c1cc(F)c2ncccc2c1)n1cnc2ncc(-c3cnc4ccccc4c3)nc21 (configuration not stated) | 134 | > 10000 | 
OCCn1cc(-c2cnc3nnn(Cc4ccc5ncccc5c4)c3n2)cn1 [PF-04217903] |  | 33.6 | 

More lines, main results first:

IC50 [3] [nM] | SMILES | IC50 (NCI-H1993) [nM] | also measured
91.8 | CC(c1cc(F)c2ncccc2c1)n1cnc2ncc(-c3cnn(C)c3)nc21 (configuration not stated) | > 10000 | 
23.8 | CC(c1c(F)cc2ncccc2c1F)n1cnc2ncc(-c3cccc4ccccc34)nc21 (configuration not stated) |  | 
2.5 | CCC(c1cc2cccnc2cc1F)n1cnc2ncc(-c3ccc(C(N)=O)c(F)c3)nc21 (configuration not stated) | 226 | 
12.7 | CC(NC/N=C/c1cnn(CCO)c1)c1ccc2ncccc2c1 (configuration not stated) | 148 | 
5.9 | COC(=O)c1ccc(-c2cnc3ncn(C(C)c4ccc5ncccc5c4C)c3n2)cc1F (configuration not stated) |  | 
3.2 | Cc1c(C(C)n2cnc3ncc(-c4cnn(C)c4)nc32)ccc2ncccc12 (configuration not stated) | 206 | 
3.6 | CC(c1cc2cccnc2cc1F)n1cnc2ncc(-c3cn[nH]c3)nc21 (configuration not stated) | 187 | 
9.3 | CCC(c1cc2cccnc2cc1F)n1cnc2ncc(-c3cnn(CCO)c3)nc21 (configuration not stated) |  | 
27.9 | FC(F)(F)c1ccc(-c2cnc3ncn(Cc4ccc5ncccc5c4)c3n2)cc1 | > 10000 | 
31 | CNC(=O)c1ccc(-c2cnc3ncn(C(C)c4cc5cccnc5cc4C)c3n2)cc1F (configuration not stated) |  | 
6.41 | COC(=O)c1ccc(/C=N/CNC(C)c2ccc3ncccc3c2)cc1F (configuration not stated) | 1110 | 
13.5 | CCC(c1ccc2ncccc2c1F)n1cnc2ncc(-c3cnn(C)c3)nc21 (configuration not stated) |  | 
39.2 | CCC(c1ccc2ncccc2c1F)n1cnc2ncc(-c3ccc(C(=O)OC)c(F)c3)nc21 (configuration not stated) |  | 
2.74 | CC(NC/N=C/c1ccc(C(N)=O)c(F)c1)c1ccc2ncccc2c1 (configuration not stated) | 238 | 
16.4 | CCC(c1ccc2ncccc2c1F)n1cnc2ncc(-c3cnc4ccccc4c3)nc21 (configuration not stated) |  | 
3.95 | CNC(=O)c1ccc(/C=N/CNC(C)c2ccc3ncccc3c2)cc1F (configuration not stated) | 191 | 
66.6 | Cn1nccc1-c1cnc2ncn(Cc3ccc4ncccc4c3)c2n1 | 7910 | 
11.7 | Cc1cc2ncccc2cc1C(C)n1cnc2ncc(-c3ccc(C(N)=O)c(F)c3)nc21 (configuration not stated) |  | 
64.5 | COC(=O)c1ccc(-c2cnc3ncn(C(C)c4cc5cccnc5cc4C)c3n2)cc1F (configuration not stated) |  | 
8.7 | CCC(c1cc2cccnc2cc1F)n1cnc2ncc(-c3cn[nH]c3)nc21 (configuration not stated) |  | 
4.6 | CC(c1cc2cccnc2cc1F)n1cnc2ncc(-c3ccccc3)nc21 (configuration not stated) | 570 | 
68.3 | Cc1cc2ncccc2cc1C(C)n1cnc2ncc(-c3ccncc3)nc21 (configuration not stated) |  | 
